Assay results taken from ChEMBL document CHEMBL6153083, “Synthesis, Structural Modification, and Antismall Cell Lung Cancer Activity of 3-Arylisoquinolines with Dual Inhibitory Activity on Topoisomerase I and II” (J Med Chem, 2025).
pIC50: −log10 of the molar value. The source made the active and inactive calls. No cut-off for these calls is given here.

How the values were obtained:
[1] = system: NCI-H446; experiment: Induction of early apoptosis in human NCI-H446 cells incubated for 48 hrs by Annexin V-FITC/PI staining based flow cytometry; type: functional, cell-based; settings: dose 1-8 µM
[2] = system: NCI-H446; experiment: Inhibition of cell invasion in human NCI-H446 cells incubated for 24 hrs by transwell assay; type: functional, cell-based
[3] = AUC (0 to infinity) in Sprague-Dawley rat at 10 mg/kg, ip measured after 24 hrs by LC-MS/MS analysis; type: ADME, organism-based; settings: in vivo
[4] = system: NCI-H1048; experiment: Induction of mitochondrial dysfunction in human NCI-H1048 cells assessed as increase in ROS level at 1 to 8 uM incubated for 48 hrs by DCFH-DA staining based flow cytometry; type: functional, cell-based; settings: dose 1-8 µM
[5] = Inhibition of PI3K/AKT/mTOR signalling pathway in human NCI-H446 cells assessed as decrease in AKT level at 1 to 8 uM incubated for 48 hrs by Western blot analysis; type: cell-based; settings: dose 1-8 µM
[6] = system: NCI-H446; experiment: Induction of DNA damage in human NCI-H446 cells incubated for 48 hrs by comet assay; type: functional, cell-based; settings: dose 1-8 µM
[7] = system: NCI-H446; experiment: Induction of apoptosis in human NCI-H446 cells assessed as decrease in Bcl-2 level incubated for 48 hrs by Western blot analysis; type: functional, cell-based; settings: dose 1-8 µM
[8] = Inhibition of PI3K/AKT/mTOR signalling pathway in human NCI-H1048 cells assessed as decrease in AKT level at 1 to 8 uM incubated for 48 hrs by Western blot analysis; type: cell-based; settings: dose 1-8 µM
[9] = Inhibition of PI3K/AKT/mTOR signalling pathway in human NCI-H1048 cells assessed as decrease in mTOR level at 1 to 8 uM incubated for 48 hrs by Western blot analysis; type: cell-based; settings: dose 1-8 µM
[10] = system: NCI-H1048; experiment: Induction of apoptosis in human NCI-H1048 cells assessed as increase in Bax level incubated for 48 hrs by Western blot analysis; type: functional, cell-based
[11] = system: NCI-H446; experiment: Inhibition of clonogenesis in human NCI-H446 cells incubated for 14 to 21 days by crystal violet staining based analysis; type: functional, cell-based; settings: dose 0.375-3 µM, time 14-21 day
[12] = system: NCI-H1048; experiment: Inhibition of cell proliferation in human NCI-H1048 cells incubated for 24 hrs by EdU incorporation assay; type: functional, cell-based; settings: dose 0.375-3 µM
[13] = system: NCI-H446; experiment: Induction of apoptosis in human NCI-H446 cells assessed as reduction in cell viability incubated for 48 hrs by Geimsa staining based analysis; type: functional; settings: dose 1-8 µM
[14] = system: NCI-H446; experiment: Antitumor activity against human NCI-H446 cells xenografted in BALB/c nude mouse at 10 mg/kg, ip for 21 days relative to control; type: functional; settings: NCI-H446, 504 h, time 21 day, read-out: TGI
[15] = system: SHP77; experiment: Antiproliferative activity against human SHP77 cells incubated for 72 hrs; type: functional, cell-based; settings: SHP77, 72 h
[16] = system: NCI-H446; experiment: Induction of mitochondrial membrane permeability in human NCI-H446 cells assessed as increase in cytochrome C release at 1 to 8 uM incubated for 48 hrs by Western blot analysis; type: functional, cell-based; settings: dose 1-8 µM
[17] = system: NCI-H1048; experiment: Induction of DNA damage in human NCI-H1048 cells incubated for 48 hrs by comet assay; type: functional, cell-based; settings: dose 1-8 µM
[18] = Inhibition of PI3K/AKT/mTOR signalling pathway in human NCI-H1048 cells assessed as decrease in PI3K phosphorylation at 1 to 8 uM incubated for 48 hrs by Western blot analysis; type: cell-based; settings: dose 1-8 µM
[19] = Cmax in Sprague-Dawley rat at 10 mg/kg, ip measured after 24 hrs by LC-MS/MS analysis; type: ADME, organism-based; settings: in vivo
[20] = Toxicity in BALB/c nude mouse xenografted with human NCI-H446 cells assessed as deleterious effect in liver at 10 to 20 mg/kg, ip for 21 days by H and E staining based analysis; type: organism-based; settings: in vivo, 504 h, dose 10-20 mg/kg, time 21 day
[21] = system: NCI-H446; experiment: Antitumor activity against human NCI-H446 cells xenografted in BALB/c nude mouse at 20 mg/kg, ip for 21 days relative to control; type: functional; settings: NCI-H446, 504 h, time 21 day, read-out: TGI
[22] = system: NCI-H146; experiment: Antiproliferative activity against human NCI-H146 cells incubated for 72 hrs; type: functional, cell-based; settings: NCI-H146, 72 h
[23] = system: NCI-H1048; experiment: Induction of apoptosis in human NCI-H1048 cells assessed as increase in cleaved caspase-9 level incubated for 48 hrs by Western blot analysis; type: functional, cell-based
[24] = system: NCI-H446; experiment: Inhibition of cell migration in human NCI-H446 cells incubated for 24 hrs by wound-healing assay; type: functional, cell-based; settings: dose 0.375-3 µM
[25] = Toxicity in BALB/c nude mouse xenografted with human NCI-H446 cells assessed as deleterious effect in spleen at 10 to 20 mg/kg, ip for 21 days by H and E staining based analysis; type: organism-based; settings: in vivo, 504 h, dose 10-20 mg/kg, time 21 day
[26] = system: NCI-H1048; experiment: Induction of early apoptosis in human NCI-H1048 cells incubated for 48 hrs by Annexin V-FITC/PI staining based flow cytometry; type: functional, cell-based; settings: dose 1-8 µM
[27] = system: NCI-H1048; experiment: Induction of cell cycle arrest in human NCI-H1048 cells assessed as accumulation at S phase incubated for 48 hrs by PI staining based flow cytometry; type: functional
[28] = system: NCI-H446; experiment: Induction of cell cycle arrest in human NCI-H446 cells assessed as accumulation at S phase incubated for 48 hrs by PI staining based flow cytometry; type: functional; settings: dose 1-8 µM
[29] = system: NCI-H1048; experiment: Inhibition of cell migration in human NCI-H1048 cells incubated for 24 hrs by transwell assay; type: functional, cell-based; settings: dose 0.375-3 µM
[30] = Toxicity in BALB/c nude mouse xenografted with human NCI-H446 cells assessed as deleterious effect in heart at 10 to 20 mg/kg, ip for 21 days by H and E staining based analysis; type: organism-based; settings: in vivo, 504 h, dose 10-20 mg/kg, time 21 day
[31] = system: NCI-H446; experiment: Induction of apoptosis in human NCI-H446 cells assessed as increase in cleaved caspase-9 level incubated for 48 hrs by Western blot analysis; type: functional, cell-based; settings: dose 1-8 µM
[32] = Inhibition of PI3K/AKT/mTOR signalling pathway in human NCI-H446 cells assessed as decrease in mTOR level at 1 to 8 uM incubated for 48 hrs by Western blot analysis; type: cell-based; settings: dose 1-8 µM
[33] = Inhibition of PI3K/AKT/mTOR signalling pathway in human NCI-H1048 cells assessed as decrease in mTOR level at 1.75 to 14 uM incubated for 48 hrs by Western blot analysis; type: cell-based; settings: dose 1.75-14 µM
[34] = system: NCI-H1048; experiment: Induction of mitochondrial dysfunction in human NCI-H1048 cells assessed as increase in ROS level at 1.75 to 14 uM incubated for 48 hrs by DCFH-DA staining based flow cytometry; type: functional, cell-based; settings: dose 1.75-14 µM
[35] = Inhibition of PI3K/AKT/mTOR signalling pathway in human NCI-H1048 cells assessed as decrease in PI3K phosphorylation at 1.75 to 14 uM incubated for 48 hrs by Western blot analysis; type: cell-based; settings: dose 1.75-14 µM
[36] = system: NCI-H446; experiment: Induction of apoptosis in human NCI-H446 cells assessed as formation of cellular fragments at 1 to 8 uM incubated for 48 hrs by Annexin V-FITC/PI staining based flow cytometry; type: functional, cell-based; settings: dose 1-8 µM
[37] = system: NCI-H1048; experiment: Induction of mitochondrial membrane permeability in human NCI-H1048 cells assessed as increase in cytochrome C release at 1.75 to 14 uM incubated for 48 hrs by Western blot analysis; type: functional, cell-based; settings: dose 1.75-14 µM
[38] = system: NCI-H1048; experiment: Induction of apoptosis in human NCI-H1048 cells at 1.75 to 14 uM incubated for 48 hrs by Annexin V-FITC/PI staining based flow cytometry; type: functional, cell-based; settings: dose 1.75-14 µM

Row | SMILES | inhibition [2] | AUC(0-inf) [3] | inhibition [5] | Activity [6] | Activity [7] | Activity [10] | inhibition [11] | inhibition [12] | Activity [13] | inhibition in vivo at 10 mg/kg [14] | pIC50 [15] | Activity [17] | Cmax [19] | Activity [20] | inhibition in vivo at 20 mg/kg [21] | pIC50 [22] | Activity [23] | inhibition [24] | Activity [25] | Activity [27] | further results
1 | CC1CC(C)CN(Cc2cc3c(cc2-c2cc4ccc5c(c4cn2)OCO5)OCO3)C1 (stereo not drawn) | Dose-dependent-effect; Displayed Stronger Inhibitory Effect Than Etoposide | 741 ng·h/mL | Active | Dose-dependent-effect | Dose-dependent-effect | Dose-dependent-effect | Dose-dependent-effect | Dose-dependent-effect; Compound Effect Surpassed Etoposide Effect | Dose-dependent-effect | 75.2% | 5.10 | Dose-dependent-effect | 145 ng/mL | Non-toxic | 82.2% | 4.64 | Dose-dependent-effect | Dose-dependent-effect; Exhibited Superior Inhibitory Effect Compared To Etoposide At Same Concentration | Non-toxic | Dose-dependent-effect | Activity [1]: Dose-dependent-effect; Exhibited Stronger Effect Than Etoposide; Activity [4]: Active; inhibition [8]: Active; inhibition [9]: Active; Activity [16]: Active; inhibition [18]: Active; Pronounced Effect Was Observed In Human Nci-H1048 Cells Than In Human Nci-H446 Cells; Activity [26]: Dose-dependent-effect; Exhibited Stronger Effect Than Etoposide; Activity [28]: Dose-dependent-effect; inhibition [29]: Dose-dependent-effect; Displayed Stronger Inhibitory Effect Than Etoposide; Activity [30]: Non-toxic; Activity [31]: Dose-dependent-effect; inhibition [32]: Active
2 | CCC1CCCC(C)N1Cc1cc2c(cc1-c1cc3ccc4c(c3cn1)OCO4)OCO2 (stereo not drawn) | Dose-dependent-effect | 1210 ng·h/mL | Active | Dose-dependent-effect | Dose-dependent-effect | Dose-dependent-effect | Dose-dependent-effect | Dose-dependent-effect; Compound Effect Surpassed Etoposide Effect | Dose-dependent-effect | 69.2% | 5.10 | Dose-dependent-effect | 228 ng/mL | Non-toxic | 85.5% | 5.21 | Dose-dependent-effect | Dose-dependent-effect | Non-toxic | Dose-dependent-effect | inhibition [33]: Active; Activity [34]: Active; inhibition [35]: Active; Activity [36]: Active; Activity Similar To Etoposide; Activity [37]: Active; Activity [28]: Dose-dependent-effect; inhibition [29]: Dose-dependent-effect; Activity [30]: Non-toxic; Activity [38]: Active; Less Effective Than Etoposide; Activity [31]: Dose-dependent-effect; inhibition [32]: Active
